Consider 13 molecules from PubChem BioAssay AID342 (DTP/NCI, 2004).

SMILES strings stand for the structures. Where “and” joins values, the source holds several entries; their conditions need not be identical. Equal values may be shown once.

The experiment deals with Swiss mice, Sarcoma 180 sc, mean tumor weight T/C. Briefly: NCI In Vivo Anticancer Drug Screen. Data for tumor model Sarcoma 180 (subcutaneous) in Swiss mice. The following applies: endpoint: mean tumor weight, higher = larger tumour. As for the experimental part: The antitumor activity of compounds was measured in mice bearing transplantable tumors. Survival or tumor size were measured and the results are expressed as the measurement made in the treated group (T) divided by the measurement made in the vehicle treated control group (C). The tumor model used in this assay is Sarcoma 180 (subcutaneous) in Swiss mice

Where [1] appears, read: dose: 8.0 mg/kg/injection, schedule: Q01DX007 (ip), vehicle: carboxymethylcellulose (CMC).

Consider `COc1ccc2c(=O)oc3c(OC)cc(CCN(C)C)c4c(=O)oc1c2c34`, for which the T/C runs as follows: (dose: 0.8 mg/kg/injection, schedule: Q01DX007 (ip), vehicle: water) 113 % of control; (dose: 1.6 mg/kg/injection, schedule: Q01DX007 (ip), vehicle: water) 77 % of control; (dose: 3.2 mg/kg/injection, schedule: Q01DX007 (ip), vehicle: water) 108 % of control; (dose: 6.3 mg/kg/injection, schedule: Q01DX007 (ip), vehicle: water) 86 % of control.

On to `Cc1cc(NC(=O)c2ccc(N)cc2)ccc1N=Nc1ccc(N=Nc2ccc3c(O)cc(S(=O)(=O)O)cc3c2)c2cc(S(=O)(=O)O)ccc12`, for which the T/C reads like this: (dose: 12.5 mg/kg/injection, schedule: Q01DX007 (ip), vehicle: water) 110 % of control; (dose: 25.0 mg/kg/injection, schedule: Q01DX007 (ip), vehicle: water) 97 % of control; (dose: 50.0 mg/kg/injection, schedule: Q01DX007 (ip), vehicle: water) 62 % of control.

In the case of `Nc1n[se]nc1C(=O)O`, the T/C is 96 % of control (dose: 0.5 mg/kg/injection, schedule: Q01DX007 (ip), vehicle: carboxymethylcellulose (CMC)); 117 % of control (dose: 1.0 mg/kg/injection, schedule: Q01DX007 (ip), vehicle: carboxymethylcellulose (CMC)); 77 % of control (dose: 2.0 mg/kg/injection, schedule: Q01DX007 (ip), vehicle: carboxymethylcellulose (CMC)).

For the molecule `CCC(=O)O[C@H]1CC[C@H]2[C@@H]3CC[C@H]4CC(=O)[C@H](C)C[C@]4(C)[C@H]3CC[C@]12C`, the T/C is 77 % of control (dose: 125.0 mg/kg/injection, schedule: Q01DX007 (sc), vehicle: steriod suspending solution); 101 % of control (dose: 250.0 mg/kg/injection, schedule: Q01DX007 (sc), vehicle: steriod suspending solution); 121 % of control (dose: 500.0 mg/kg/injection, schedule: Q01DX007 (sc), vehicle: steriod suspending solution); 62 % of control (dose: 1000.0 mg/kg/injection, schedule: Q01DX007 (sc), vehicle: steriod suspending solution).

In the case of `CCc1nc(N)nc(N)c1-c1ccc(Cl)c(Cl)c1.O.O.[Zn]`, the T/C was 62 % of control (dose: 1.5 mg/kg/injection, schedule: Q01DX007 (ip), vehicle: carboxymethylcellulose (CMC)); 65 % of control (dose: 2.3 mg/kg/injection, schedule: Q01DX007 (ip), vehicle: carboxymethylcellulose (CMC)); 46 % of control (dose: 3.5 mg/kg/injection, schedule: Q01DX007 (ip), vehicle: carboxymethylcellulose (CMC)); 39 % of control under setting [1]; 18 % of control (dose: 12.0 mg/kg/injection, schedule: Q01DX007 (ip), vehicle: carboxymethylcellulose (CMC)).

Take `O=P1(N(CCCl)CCCl)NCCCO1` (stereo not given): the T/C reads like this: (dose: 12.5 mg/kg/injection, schedule: Q01DX007 (ip), vehicle: carboxymethylcellulose (CMC)) 50 % of control and 55 % of control; (dose: 15.0 mg/kg/injection, schedule: Q01DX007 (ip), vehicle: carboxymethylcellulose (CMC)) 88 % of control; (dose: 23.88 mg/kg/injection, schedule: Q01DX007 (ip), vehicle: carboxymethylcellulose (CMC)) 101 % of control; (dose: 25.0 mg/kg/injection, schedule: Q01DX007 (ip), vehicle: carboxymethylcellulose (CMC)) 70 % of control; (dose: 29.85 mg/kg/injection, schedule: Q01DX007 (ip), vehicle: carboxymethylcellulose (CMC)) 97 % of control; (dose: 30.0 mg/kg/injection, schedule: Q01DX007 (ip), vehicle: carboxymethylcellulose (CMC)) 25 % of control. Also, the T/C by setting is: (dose: 39.8 mg/kg/injection, schedule: Q01DX007 (ip), vehicle: carboxymethylcellulose (CMC)) 72 % of control; (dose: 59.7 mg/kg/injection, schedule: Q01DX007 (ip), vehicle: carboxymethylcellulose (CMC)) 34 % of control; (dose: 60.0 mg/kg/injection, schedule: Q01DX007 (ip), vehicle: carboxymethylcellulose (CMC)) 4 % of control; (dose: 80.0 mg/kg/injection, schedule: Q01DX007 (ip), vehicle: carboxymethylcellulose (CMC)) 4 % of control; (dose: 746.25 mg/kg/injection, schedule: Q#A X014 (ip), vehicle: carboxymethylcellulose (CMC)) 65 % of control; (dose: 1492.5 mg/kg/injection, schedule: Q#A X014 (ip), vehicle: carboxymethylcellulose (CMC)) 45 % of control. In addition, the T/C runs as follows: (dose: 2985.0 mg/kg/injection, schedule: Q#A X014 (ip), vehicle: carboxymethylcellulose (CMC)) 7 % of control; (dose: 3731.0 mg/kg/injection, schedule: Q#A X014 (ip), vehicle: carboxymethylcellulose (CMC)) 67 % of control.

As for `C[C@]12CC[C@H](O)CC1=CC[C@@H]1[C@@H]2CC[C@]2(C)c3nc4ccccc4cc3C[C@@H]12`, the T/C reads like this: (dose: 15.6 mg/kg/injection, schedule: Q01DX007 (sc), vehicle: saline) 93 % of control; (dose: 62.5 mg/kg/injection, schedule: Q01DX007 (sc), vehicle: saline) 57 % of control; (dose: 125.0 mg/kg/injection, schedule: Q01DX007 (sc), vehicle: saline) 95 % of control; (dose: 250.0 mg/kg/injection, schedule: Q01DX007 (sc), vehicle: saline) 66 % of control; (dose: 500.0 mg/kg/injection, schedule: Q01DX007 (sc), vehicle: saline) 93 % of control.

Turning to `CCC(=O)O[C@H]1CC[C@H]2[C@@H]3CCC4=CC(=O)CC[C@]4(C)[C@H]3[C@@H](O)C[C@]12C`, the T/C by setting is: (dose: 12.5 mg/kg/injection, schedule: Q#A X014 (sc), vehicle: steriod suspending solution) 96 % of control; (dose: 125.0 mg/kg/injection, schedule: Q#A X014 (sc), vehicle: steriod suspending solution) 88 % of control; (dose: 250.0 mg/kg/injection, schedule: Q#A X014 (sc), vehicle: steriod suspending solution) 94 % of control.

Consider `C[C@]12CC[C@H](O)C[C@H]1CC[C@@H]1[C@@H]2CC[C@]2(C)[C@@H](C3=CC(=O)OC3)[C@@H](O)C[C@]12O`, for which the T/C by setting is: (dose: 3.0 mg/kg/injection, schedule: Q01DX007 (sc), vehicle: steriod suspending solution) 78 % of control; (dose: 10.0 mg/kg/injection, schedule: Q01DX007 (sc), vehicle: steriod suspending solution) 64 % of control; (dose: 25.0 mg/kg/injection, schedule: Q01DX007 (sc), vehicle: steriod suspending solution) 50 % of control; (dose: 50.0 mg/kg/injection, schedule: Q01DX007 (sc), vehicle: steriod suspending solution) 70 % of control.

Take `CO[C@H]1CC[C@@]2(C)C(=CC[C@H]3[C@@H]4C[C@H](O)C[C@@]4(C)CC[C@@H]32)C1`: the T/C by setting is: (dose: 2.5 mg/kg/injection, schedule: Q01DX007 (sc), vehicle: steriod suspending solution) 105 % of control; (dose: 5.0 mg/kg/injection, schedule: Q01DX007 (sc), vehicle: steriod suspending solution) 80 % of control.

Take `c1ccc(CNc2ncnc3[nH]ncc23)cc1`: the T/C is, setting by setting: under setting [1], 87 % of control; (dose: 16.0 mg/kg/injection, schedule: Q01DX007 (ip), vehicle: carboxymethylcellulose (CMC)) 106 % of control; (dose: 31.0 mg/kg/injection, schedule: Q01DX007 (ip), vehicle: carboxymethylcellulose (CMC)) 62 % of control.

For the molecule `C1CN1c1nc(N2CC2)nc(N2CC2)n1`, the T/C is 111 % of control (dose: 85.0 micrograms/kg/injection, schedule: Q01DX007 (ip), vehicle: carboxymethylcellulose (CMC)); 95 % of control (dose: 170.0 micrograms/kg/injection, schedule: Q01DX007 (ip), vehicle: carboxymethylcellulose (CMC)); 119 % of control (dose: 340.0 micrograms/kg/injection, schedule: Q01DX007 (ip), vehicle: carboxymethylcellulose (CMC)); 124 % of control (dose: 680.0 micrograms/kg/injection, schedule: Q01DX007 (ip), vehicle: carboxymethylcellulose (CMC)).

As to `c1ccc2c(c1)-c1cccc3c1c-2cc1ccccc13`, the T/C was 53 % of control (dose: 25.0 mg/kg/injection, schedule: Q01DX007 (ip), vehicle: other); 36 % of control and 47 % of control (dose: 36.0 mg/kg/injection, schedule: Q01DX007 (ip), vehicle: other); 35 % of control (dose: 55.0 mg/kg/injection, schedule: Q01DX007 (ip), vehicle: carboxymethylcellulose (CMC)); 57 % of control (dose: 55.0 mg/kg/injection, schedule: Q01DX007 (ip), vehicle: other); 26 % of control and 42 % of control (dose: 82.5 mg/kg/injection, schedule: Q01DX007 (ip), vehicle: other); 14 % of control (dose: 125.0 mg/kg/injection, schedule: Q01DX007 (ip), vehicle: other).
